Publication PMC9736855, “Discovery of 3-Amino-1H-pyrazole-Based Kinase Inhibitors to Illuminate the Understudied PCTAIRE Family” (International Journal of Molecular Sciences, 2022)

Key:
Experiment in all cases: DSF
Type in all cases: binding
AKT3 = target: T1, AKT3 (Homo sapiens, UniProt Q9Y243)
T1 construct: purchased in-house DSF panel (SGC Frankfurt)
Experimental: (§2) Recombinant protein kinase domains with a concentration of 2 μM were mixed with a 10 μM compound solution in DMSO, 20 mM HEPES, pH 7.5, and 500 mM NaCl. SYPRO Orange (5000×, Invitrogen) was added as a fluorescence probe (1 µl per mL). Subsequently, temperature-dependent protein unfolding profiles were measured, using the QuantStudio™ 5 realtime PCR machine (Thermo Fisher, Waltham, MA, USA). […] The temperature was raised with a step rate of 3 °C per minute. Data points were analyzed with the internal software (Thermal Shift SoftwareTM Version 1.4, Thermo Fisher) using the Boltzmann equation to determine the inflection point of the transition curve [56]. Differences in melting temperature are given as ΔTm values in °C. Measurements were performed in duplicates.

BMX = target: T2, BMX (Homo sapiens, UniProt P51813)
T2 construct: purchased in-house DSF panel (SGC Frankfurt)
Experimental: (§1) Recombinant protein kinase domains with a concentration of 2 μM were mixed with a 10 μM compound solution in DMSO, 20 mM HEPES, pH 7.5, and 500 mM NaCl. SYPRO Orange (5000×, Invitrogen) was added as a fluorescence probe (1 µl per mL). Subsequently, temperature-dependent protein unfolding profiles were measured, using the QuantStudio™ 5 realtime PCR machine (Thermo Fisher, Waltham, MA, USA). […] The temperature was raised with a step rate of 3 °C per minute. Data points were analyzed with the internal software (Thermal Shift SoftwareTM Version 1.4, Thermo Fisher) using the Boltzmann equation to determine the inflection point of the transition curve. Differences in melting temperature are given as ΔTm values in °C. Measurements were performed in duplicates.

CAMK1D = target: T3, CAMK1D (Homo sapiens, UniProt Q8IU85)
T3 construct: purchased in-house DSF panel (SGC Frankfurt)
Experimental: as §1

CDKL1 = target: T4, CDKL1 (Homo sapiens, UniProt Q00532)
T4 construct: purchased in-house DSF panel (SGC Frankfurt)
Experimental: as §1

CHEK2 = target: T5, CHEK2 (Homo sapiens, UniProt O96017)
T5 construct: purchased in-house DSF panel (SGC Frankfurt)
Experimental: as §1

FGFR1 = target: T6, FGFR1 (Homo sapiens, UniProt P11362)
T6 construct: purchased in-house DSF panel (SGC Frankfurt)
Experimental: as §1

MAPK1 = target: T7, MAPK1 (Homo sapiens, UniProt P28482)
T7 construct: purchased in-house DSF panel (SGC Frankfurt)
Experimental: as §1

PHKG2 = target: T8, PHKG2 (Homo sapiens, UniProt P15735)
T8 construct: purchased in-house DSF panel (SGC Frankfurt)
T8 sequence (P15735 6-293): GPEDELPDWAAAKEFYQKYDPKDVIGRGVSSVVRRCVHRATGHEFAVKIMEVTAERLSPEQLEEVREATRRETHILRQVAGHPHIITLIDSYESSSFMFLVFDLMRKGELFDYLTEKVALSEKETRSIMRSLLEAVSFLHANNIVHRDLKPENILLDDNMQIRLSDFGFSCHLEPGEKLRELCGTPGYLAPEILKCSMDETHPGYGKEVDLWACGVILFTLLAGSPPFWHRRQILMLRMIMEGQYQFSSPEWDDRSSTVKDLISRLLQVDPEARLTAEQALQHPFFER
Experimental: as §1

PKMYT1 = target: T9, PKMYT1 (Homo sapiens, UniProt Q99640)
T9 construct: purchased in-house DSF panel (SGC Frankfurt)
T9 sequence (Q99640 75-362): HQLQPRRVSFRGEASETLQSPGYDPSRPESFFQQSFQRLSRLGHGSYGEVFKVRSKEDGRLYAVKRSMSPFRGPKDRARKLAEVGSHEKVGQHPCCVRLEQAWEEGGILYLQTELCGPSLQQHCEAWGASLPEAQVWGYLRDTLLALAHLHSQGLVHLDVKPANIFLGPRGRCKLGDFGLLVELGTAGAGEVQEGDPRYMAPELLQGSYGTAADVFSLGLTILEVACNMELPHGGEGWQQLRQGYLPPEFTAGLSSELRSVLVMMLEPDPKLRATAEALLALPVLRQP
Experimental: as §1

VRK1 = target: T10, VRK1 (Homo sapiens, UniProt Q99986)
T10 construct: purchased in-house DSF panel (SGC Frankfurt)
T10 sequence (Q99986 1-396): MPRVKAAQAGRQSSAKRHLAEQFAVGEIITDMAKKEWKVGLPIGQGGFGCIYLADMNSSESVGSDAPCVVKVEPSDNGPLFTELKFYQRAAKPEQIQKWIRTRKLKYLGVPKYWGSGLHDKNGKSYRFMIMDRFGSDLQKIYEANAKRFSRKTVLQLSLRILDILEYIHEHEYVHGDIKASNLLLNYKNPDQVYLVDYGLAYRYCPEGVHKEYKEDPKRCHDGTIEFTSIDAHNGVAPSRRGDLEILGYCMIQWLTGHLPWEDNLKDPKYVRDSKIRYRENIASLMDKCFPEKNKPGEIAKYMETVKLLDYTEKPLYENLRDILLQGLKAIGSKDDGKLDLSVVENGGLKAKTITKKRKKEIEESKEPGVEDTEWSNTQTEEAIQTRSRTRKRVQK
Experimental: as §1

DAPK3 = target: T11, DAPK3 (Homo sapiens, UniProt O43293)
T11 construct: purchased in-house DSF panel (SGC Frankfurt)
Experimental: as §2

DYRK2 = target: T12, DYRK2 (Homo sapiens, UniProt Q92630)
T12 construct: purchased in-house DSF panel (SGC Frankfurt)
T12 sequence (Q92630 1-601): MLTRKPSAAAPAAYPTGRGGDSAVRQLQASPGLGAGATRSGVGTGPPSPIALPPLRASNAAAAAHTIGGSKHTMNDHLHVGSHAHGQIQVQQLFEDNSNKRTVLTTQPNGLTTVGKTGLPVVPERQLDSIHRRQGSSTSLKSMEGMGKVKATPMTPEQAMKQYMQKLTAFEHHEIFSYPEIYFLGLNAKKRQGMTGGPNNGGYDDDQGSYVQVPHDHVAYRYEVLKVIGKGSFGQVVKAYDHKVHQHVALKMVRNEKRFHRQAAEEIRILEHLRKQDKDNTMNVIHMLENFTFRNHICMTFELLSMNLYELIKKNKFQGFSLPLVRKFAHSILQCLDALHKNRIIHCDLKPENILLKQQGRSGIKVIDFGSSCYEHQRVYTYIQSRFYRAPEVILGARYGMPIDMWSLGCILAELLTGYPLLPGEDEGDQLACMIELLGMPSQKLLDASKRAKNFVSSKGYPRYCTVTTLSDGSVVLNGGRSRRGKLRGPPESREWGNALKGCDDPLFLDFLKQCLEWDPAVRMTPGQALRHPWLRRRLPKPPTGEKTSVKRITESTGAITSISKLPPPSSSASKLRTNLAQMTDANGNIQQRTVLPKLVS
Experimental: as §2

STK38L = target: T13, STK38L (Homo sapiens, UniProt Q9Y2H1)
T13 construct: purchased in-house DSF panel (SGC Frankfurt)
Experimental: as §2

PDK4 = target: T14, PDK4 (Homo sapiens, UniProt Q16654)
T14 construct: purchased in-house DSF panel (SGC Frankfurt)
Experimental: as §1

RIOK1 = target: T15, RIOK1 (Homo sapiens, UniProt Q9BRS2)
T15 construct: purchased in-house DSF panel (SGC Frankfurt)
T15 sequence (Q9BRS2 143-494): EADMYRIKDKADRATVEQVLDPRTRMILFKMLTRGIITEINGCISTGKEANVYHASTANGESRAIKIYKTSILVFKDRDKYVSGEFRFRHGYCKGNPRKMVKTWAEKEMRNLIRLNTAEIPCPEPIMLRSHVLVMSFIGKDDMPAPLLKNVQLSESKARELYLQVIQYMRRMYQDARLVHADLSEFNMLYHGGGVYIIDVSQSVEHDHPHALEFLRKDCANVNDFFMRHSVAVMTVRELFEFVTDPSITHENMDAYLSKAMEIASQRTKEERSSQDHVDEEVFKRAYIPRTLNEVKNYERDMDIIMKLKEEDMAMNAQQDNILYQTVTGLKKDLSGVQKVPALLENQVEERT
Experimental: as §1

T7 sequence (P28482 whole entry): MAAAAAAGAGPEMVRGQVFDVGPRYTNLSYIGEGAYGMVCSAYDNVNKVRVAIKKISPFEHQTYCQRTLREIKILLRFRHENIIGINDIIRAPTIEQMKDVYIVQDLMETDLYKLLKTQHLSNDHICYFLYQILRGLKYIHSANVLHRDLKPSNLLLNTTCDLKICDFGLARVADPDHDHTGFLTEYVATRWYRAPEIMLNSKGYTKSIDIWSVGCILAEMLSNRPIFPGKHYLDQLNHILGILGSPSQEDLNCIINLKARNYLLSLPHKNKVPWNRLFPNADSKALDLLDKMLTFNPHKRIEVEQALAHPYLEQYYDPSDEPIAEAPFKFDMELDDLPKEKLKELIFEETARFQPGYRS
T11 sequence (O43293 9-289): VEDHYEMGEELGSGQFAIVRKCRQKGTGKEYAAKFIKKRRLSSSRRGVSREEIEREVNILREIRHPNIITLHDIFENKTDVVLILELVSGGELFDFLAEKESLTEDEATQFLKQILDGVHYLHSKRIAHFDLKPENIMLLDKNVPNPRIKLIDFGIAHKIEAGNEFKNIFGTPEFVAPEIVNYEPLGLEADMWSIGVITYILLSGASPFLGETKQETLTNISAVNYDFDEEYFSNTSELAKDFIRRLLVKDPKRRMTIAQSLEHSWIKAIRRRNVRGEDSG
T1 sequence (Q9Y243 148-479): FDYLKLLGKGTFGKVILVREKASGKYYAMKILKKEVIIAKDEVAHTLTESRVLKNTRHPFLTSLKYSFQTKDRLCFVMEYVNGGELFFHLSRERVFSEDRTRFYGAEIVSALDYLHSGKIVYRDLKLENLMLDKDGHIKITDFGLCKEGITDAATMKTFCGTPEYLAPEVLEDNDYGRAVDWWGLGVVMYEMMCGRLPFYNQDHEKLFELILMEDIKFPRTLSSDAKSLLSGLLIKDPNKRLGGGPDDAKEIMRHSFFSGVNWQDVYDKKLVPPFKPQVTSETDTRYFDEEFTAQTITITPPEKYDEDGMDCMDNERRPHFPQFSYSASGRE
T3 sequence (Q8IU85 23-279): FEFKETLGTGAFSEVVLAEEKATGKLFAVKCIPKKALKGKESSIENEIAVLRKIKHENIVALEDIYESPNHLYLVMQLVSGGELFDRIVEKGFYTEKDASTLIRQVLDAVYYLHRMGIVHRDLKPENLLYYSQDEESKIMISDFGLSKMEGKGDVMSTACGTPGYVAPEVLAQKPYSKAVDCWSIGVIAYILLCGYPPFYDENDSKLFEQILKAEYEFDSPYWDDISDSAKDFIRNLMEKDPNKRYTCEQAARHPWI
T2 sequence (P51813 411-675): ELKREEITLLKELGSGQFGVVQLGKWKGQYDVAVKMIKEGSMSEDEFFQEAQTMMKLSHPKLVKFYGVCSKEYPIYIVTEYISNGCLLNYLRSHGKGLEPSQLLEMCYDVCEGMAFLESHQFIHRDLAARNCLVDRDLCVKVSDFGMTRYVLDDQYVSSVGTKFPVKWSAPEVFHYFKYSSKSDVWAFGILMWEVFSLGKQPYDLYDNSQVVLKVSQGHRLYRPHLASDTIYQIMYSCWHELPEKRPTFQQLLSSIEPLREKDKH
T14 sequence (Q16654 whole entry): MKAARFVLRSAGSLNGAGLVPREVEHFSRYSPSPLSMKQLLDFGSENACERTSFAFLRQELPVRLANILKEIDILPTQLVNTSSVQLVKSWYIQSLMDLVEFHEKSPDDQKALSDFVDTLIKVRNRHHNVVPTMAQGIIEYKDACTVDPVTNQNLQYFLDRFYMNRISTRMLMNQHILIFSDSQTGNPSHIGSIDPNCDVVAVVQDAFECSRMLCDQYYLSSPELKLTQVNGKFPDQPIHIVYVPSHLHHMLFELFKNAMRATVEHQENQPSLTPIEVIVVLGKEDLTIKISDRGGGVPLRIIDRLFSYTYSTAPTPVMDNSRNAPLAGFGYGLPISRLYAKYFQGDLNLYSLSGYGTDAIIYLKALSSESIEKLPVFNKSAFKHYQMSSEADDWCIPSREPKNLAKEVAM
T6 sequence (P11362 456-765): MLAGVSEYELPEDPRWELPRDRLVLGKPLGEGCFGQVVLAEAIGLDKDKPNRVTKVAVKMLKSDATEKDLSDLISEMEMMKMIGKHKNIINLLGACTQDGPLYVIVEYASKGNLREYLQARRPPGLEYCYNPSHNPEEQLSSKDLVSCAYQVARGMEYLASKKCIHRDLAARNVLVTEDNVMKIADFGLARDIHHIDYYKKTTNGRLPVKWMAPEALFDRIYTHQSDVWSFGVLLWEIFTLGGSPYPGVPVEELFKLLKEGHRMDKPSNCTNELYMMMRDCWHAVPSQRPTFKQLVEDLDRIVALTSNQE
T4 sequence (Q00532 1-303): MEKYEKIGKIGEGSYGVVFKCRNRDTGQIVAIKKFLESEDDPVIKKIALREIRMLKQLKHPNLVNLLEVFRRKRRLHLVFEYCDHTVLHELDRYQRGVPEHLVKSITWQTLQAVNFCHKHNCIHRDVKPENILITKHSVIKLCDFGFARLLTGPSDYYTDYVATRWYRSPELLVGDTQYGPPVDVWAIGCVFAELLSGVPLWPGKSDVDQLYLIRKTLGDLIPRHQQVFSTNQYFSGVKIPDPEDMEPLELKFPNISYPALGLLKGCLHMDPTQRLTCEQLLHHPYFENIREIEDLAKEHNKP
T13 sequence (Q9Y2H1 90-453): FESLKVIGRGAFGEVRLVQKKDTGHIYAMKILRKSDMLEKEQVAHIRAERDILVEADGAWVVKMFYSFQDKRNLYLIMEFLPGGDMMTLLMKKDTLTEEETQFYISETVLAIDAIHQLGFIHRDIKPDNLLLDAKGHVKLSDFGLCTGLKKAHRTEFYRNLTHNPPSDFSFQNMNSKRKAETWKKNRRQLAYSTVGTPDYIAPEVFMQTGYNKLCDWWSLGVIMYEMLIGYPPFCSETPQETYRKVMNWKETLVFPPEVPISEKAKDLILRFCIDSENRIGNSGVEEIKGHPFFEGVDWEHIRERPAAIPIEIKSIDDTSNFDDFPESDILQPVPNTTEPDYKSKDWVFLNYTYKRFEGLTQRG
T5 sequence (O96017 210-531): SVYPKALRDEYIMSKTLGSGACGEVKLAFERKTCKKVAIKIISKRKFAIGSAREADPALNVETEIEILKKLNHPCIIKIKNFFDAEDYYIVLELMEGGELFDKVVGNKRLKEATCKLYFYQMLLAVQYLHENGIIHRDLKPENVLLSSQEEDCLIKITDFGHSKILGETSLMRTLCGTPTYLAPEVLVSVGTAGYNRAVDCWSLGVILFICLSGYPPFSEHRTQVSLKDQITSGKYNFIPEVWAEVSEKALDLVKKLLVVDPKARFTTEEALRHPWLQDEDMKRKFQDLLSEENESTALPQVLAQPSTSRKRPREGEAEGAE

SMILES | ΔTm AKT3 (AKT3) [°C] | ΔTm BMX (BMX) [°C] | ΔTm CAMK1D (CAMK1D) [°C] | ΔTm CDKL1 (CDKL1) [°C] | ΔTm CHEK2 (CHEK2) [°C] | ΔTm FGFR1 (FGFR1) [°C] | ΔTm MAPK1 (MAPK1) [°C] | ΔTm PHKG2 (PHKG2) [°C] | ΔTm PKMYT1 (PKMYT1) [°C] | ΔTm VRK1 (VRK1) [°C] | ΔTm DAPK3 (DAPK3) [°C] | ΔTm DYRK2 (DYRK2) [°C] | ΔTm STK38L (STK38L) [°C] | ΔTm PDK4 (PDK4) [°C] | ΔTm RIOK1 (RIOK1) [°C]
CC(C)OC(=O)c1cc(Nc2ccnc(NCc3ccc(NC(=O)OC(C)(C)C)cc3)n2)n[nH]1 [42d, isopropyl 3-((2-((4-((tert-butoxycarbonyl)amino)benzyl)amino)pyrimidin-4-yl)amino)-1H-pyrazole-5-carboxylate] | 0.6 | -0.1 | -2.4 | 1.7 | 0.6 | 0.4 | -0.1 | -0.2 | -3.2 | 0.5 | 0.1 | 0.5 | 0.0 |  | 
N#CCc1ccc(Nc2nccc(Nc3cc(C4CC4)[nH]n3)n2)cc1 [compound 1, reference compound] |  | 4.4 | 5.4 | 6.8 | 8.6 | 4.5 | 8.5 | 8.8 | 1.0 | 5.9 | 9.7 | 11.0 | 8.7 | 1.2 | 4.9
COC(=O)c1cc(Nc2ccnc(NCCOCCNC(=O)OC(C)(C)C)n2)[nH]n1 [21d, methyl 5-((2-((2-(2-((tert-butoxycarbonyl)amino)ethoxy)ethyl)amino)pyrimidin-4-yl)amino)-1H-pyrazole-3-carboxylate] | 0.3 | 0.2 | 1.4 | 0.1 | 2.5 | 0.5 | 0.3 | 0.5 | 1.0 | 1.0 | 3.3 | 2.1 | 1.2 | 1.8 | 0.1
CC(C)(C)OC(=O)Nc1ccc(CNc2nccc(Nc3cc(C(=O)OC(C)(C)C)[nH]n3)n2)cc1 [43d, tert-butyl 3-((2-((4-((tert-butoxycarbonyl)amino)benzyl)amino)pyrimidin-4-yl)amino)-1H-pyrazole-5-carboxylate] | 0.5 | -0.4 | -2.9 | 2.1 | 1.3 | 0.6 | 0.0 | 0.5 | -2.0 | 0.9 | 0.3 | 0.8 | 0.0 |  | 
COC(=O)c1cc(Nc2ccnc(NCc3ccc(NC(=O)OC(C)(C)C)cc3)n2)[nH]n1 [21i, methyl 5-((2-((4-((tert-butoxycarbonyl)amino)benzyl)amino)pyrimidin-4-yl)amino)-1H-pyrazole-3-carboxylate] | -0.3 | -0.1 | -0.5 | 0.5 | 0.6 | 0.0 | 0.7 | -0.3 | 0.2 | 1.1 | -0.6 | 1.1 | 0.9 | 0.9 | 0.8
